Data reported in patent US20110263539A1, “SHIP 1 MODULATOR COMPOUNDS” (THE UNIVERSITY OF BRITISH COLUMBIA, priority 2006, published 2011).
One block for each compound: values may come before it.

Tests used:
J774.1a macrophage cells [1] = experiment: Macrophage TNF-α production (Assay 2); type: cell-based; conditions: 10 μg/mL test compound, 100 ng/mL LPS, ELISA; further: key: a ‘+’ indicates a positive result for desired activity; a ‘−’ indicates a negative result for desired activity
Method: Assay 2) Macrophage TNF-α production. J774.1a macrophage cells were treated with 10 μg/mL of test compound dissolved in solvent (e.g. cyclodextran) for 40 minutes prior to the addition of 100 ng/mL LPS. Culture supernatants were collected after 2 hr and 5 hr for TNF-α determination by ELISA.

J774.1a macrophage cells [2] = experiment: Macrophage TNF-α NO assay (Assay 3); type: cell-based; conditions: 10 μg/ml test compound, LPS, 24 hr, Griess reagent; further: key: a ‘+’ indicates a positive result for desired activity; a ‘−’ indicates a negative result for desired activity
Method: Assay 3) Macrophage TNF-α NO assay. J774.1a macrophage cells were treated with 10 μg/ml of test compound dissolved in solvent for 40 minutes prior to the addition of LPS. Culture supernatants were collected after 24 hr. for determination of NO concentration using the Griess reagent.

J774.1 macrophage cells = experiment: TNFα production in J774.1 macrophages (Example 9); type: cell-based; conditions: 2 ng/mL LPS
Method: J774.1 macrophage cells were plated at 2×10^5 cells/well in 24 well plates. The next day the media was changed and Compound 100, Compound 103 or cyclodextrin carrier were added to the wells at the indicated concentrations for 30 min prior to stimulation of the cells with 2 ng/mL lipopolysaccharide (LPS). LPS activation of macrophages leads to production of TNF alpha which can be detected in the culture supernatant and quantified by ELISA. The results are depicted in a graph in FIG. 1.

Mast cells = experiment: Stimulation of mast cells by FcεRI crosslinking (Assay 4); type: cell-based; conditions: anti-DNP IgE, DNP-HSA
Method: Assay 4) Stimulation of mast cells by FcåRI crosslinking. Mast cells were pre-loaded overnight in BMMC medium lacking IL-3 with 0.1 μg/ml anti-DNP IgE (SPE-7, Sigma, Oakville, Ont). For calcium flux measurements, cells were incubated with 2 μM fura 2-acetoxymethyl ester (Molecular Probes, Eugene, Oreg.) in Tyrode's buffer at 23° C. for 45 min. Cells were then washed and incubated in the presence of the test compound 30 min prior to stimulation with the indicated concentration of DNP-human serum albumin (DNP-HSA). Calcium influx was monitored by spectrofluorometry as described previously. For analysis of intracellular signaling, cells were pre-loaded with anti-DNP IgE as above, pre-treated with the test compound for 30 min at 37° C. and stimulated with 20 ng/ml DNP-HSA for 5 min. Total cell lysates were then prepared and analyzed for phospho-PKB, phospho-p38^MAPK, phospho-MAPK, Grb-2 (Cell Signalling, Mississauga, Ont) and SHIP^6 by immunoblot analysis.

[3] = test system: Bone marrow derived mast cells; experiment: Calcium influx in mast cells (Example 11); type: cell-based; conditions: anti IgE antibody, Fura-2
From the text: The activation of mast cells by IgE receptor crosslinking leads to an influx of calcium into the cells, followed by degranulation and secretion of pro-inflammatory mediator. Bone marrow derived mast cells were loaded with the fluorescent calcium indicator dye Fura-2 prior to treatment for 1 hr with Compound 106 or PBS carrier. Cells were then stimulated or not with an anti IgE antibody to cross-link the IgE receptors. Calcium influx was then monitored by fluorimetry. The results are depicted in a graph in FIG. 3.

[4] = test system: SHIP+/+ bone marrow derived macrophages; experiment: LPS stimulation of SHIP+/+ bone marrow derived macrophages; type: cell-based, mice; conditions: SHIP+/+ cells, 15 μM, 10 ng/mL LPS 2 h
Method: (§1) Bone marrow cells were aspirated from 4 to 8 week old C57B16×129Sv mixed background mice and SHIP and SHIP cells prepared as described previously. Bone marrow derived macrophages from SHIP^+/+ and SHIP^−/− mice were obtained and maintained in IMDM supplemented with 10% FCS, 150 μM MTG, 2% C127 cell conditioned medium as a source of macrophage colony stimulating factor (M-CSF) (macrophage medium)
LPS stimulation of macrophages. For the analysis of LPS-stimulated TNFα production, 2×10^5 cells were plated the night before in 24 well plates in macrophage medium. The next day, the medium was changed and AQX-016A or carrier was added to cells at the indicated concentrations for 30 min prior to the addition of 10 ng/mL LPS. Supernatants were collected for TNFα determination by ELISA (BD Biosciences, Mississauga, ON, Canada). For analysis of intracellular signaling, 2×10^6 cells were plated the night before in 6 cm tissue culture plates. The next day, the cells were cultured in macrophage medium without M-CSF for 1 hr at 37° C. and then pretreated with AQX-016A or carrier for 30 min prior to the addition of 10 ng/mL LPS for 15 min. Cells were washed with 4° C. PBS and resuspended in lysis buffer (50 mM Hepes, 2 mM EDTA, 1 mM NaVO4, 100 mM NaF, 50 mM NaPPi and 1% NP40) supplemented with Complete Protease Inhibitor Cocktail (Roche, Montreal, Canada). Lysates were rocked at 4° C. for 30 min and clarified by centrifuging 20 min at 12000×g. Lysates were then made 1× in Laemmli's buffer, boiled 2 min and loaded onto 7.5% SDS polyacrylamide […]. Immunoblot analysis for phospho PKB (Cell Signalling, Mississauga, Ont), SHIP and actin (Santa Cruz, Santa Cruz, Calif.) were carried out as described previously.
The target specificity and biological efficacy of AQX-016A were assessed by comparing AQX-016A's effects on PI3K-regulated processes in primary SHIP^+/+ vs SHIP^−/− macrophages and mast cells. […] LPS stimulation of macrophages is associated with a PIP3-dependent release of pro-inflammatory mediators such as TNFα. […]

[5] = test system: SHIP−/− bone marrow derived macrophages; experiment: LPS stimulation of SHIP−/− bone marrow derived macrophages; type: cell-based, mice; conditions: SHIP−/− cells, 15 μM, 10 ng/mL LPS 2 h
Method: as §1
LPS stimulation of macrophages. For the analysis of LPS-stimulated TNFα production, 2×10^5 cells were plated the night before in 24 well plates in macrophage medium. The next day, the medium was changed and AQX-016A or carrier was added to cells at the indicated concentrations for 30 min prior to the addition of 10 ng/mL LPS. Supernatants were collected for TNFα determination by ELISA (BD Biosciences, Mississauga, ON, Canada). For analysis of intracellular signaling, 2×10^6 cells were plated the night before in 6 cm tissue culture plates. The next day, the cells were cultured in macrophage medium without M-CSF for 1 hr at 37° C. and then pretreated with AQX-016A or carrier for 30 min prior to the addition of 10 ng/mL LPS for 15 min. Cells were washed with 4° C. […]
The target specificity and biological efficacy of AQX-016A were assessed by comparing AQX-016A's effects on PI3K-regulated processes in primary SHIP^+/+ vs SHIP^−/− macrophages and mast cells. […]

SHIP enzyme = experiment: In vitro SHIP enzyme assay (Assay 1); type: biochemical; conditions: wild-type SHIP
Method: Assay 1) In vitro testing in a SHIP enzyme assay. Test compounds were dissolved in a suitable solvent (e.g. EtOH, DMSO and others) and diluted into aqueous buffer (20 mM Tris HCl, pH 7.5 and 10 mM MgCl2). SHIP enzyme assays were performed in 96-well microtitre plates with 10 ng of enzyme/well in a total volume of 25 μL of 20 mM Tris HCl, pH 7.5 and 10 mM MgCl2. SHIP enzyme was incubated with test extracts (provided in solvent) or vehicle for 15 min at 23° C. before the addition of 100 μM inositol-1,3,4,5-tetrakisphosphate (Echelon Biosciences Inc, Salt Lake City, Utah). After 20 min at 37° C. and the amount of inorganic phosphate released assessed by the addition of Malachite Green reagent and absorbance measurement at 650 nm.
For in vitro testing in the SHIP enzyme assay, AQX-016A and Compound 100 were dissolved in EtOH and diluted into aqueous buffer (20 mM Tris HCl, pH 7.5 and 10 mM MgCl2). The actual concentration of drug in solution was determined by optical density measurement at 280 nm (λmax for both compounds) after high speed centrifugation at 14 000×g for 30 min to remove precipitated drug. For testing on cells, compounds were formulated in the carrier cyclodextrin (Cyclodex Technologies, High Springs, Fla.) at 6 mM (2 mg/mL). For oral administration to animals, compounds were dissolved in 100% cremophore EL (Sigma-Aldrich Canada, Oakville, Ontario) at 150 mM (50 mg/mL) prior to dilution to 6 mM in phosphate buffer saline. However, while these compounds caged in cyclodextrin or formulated in cremophore EL micelles were very soluble in aqueous solution, they could not be used in the SHIP enzyme assays because of interference from both cyclodextrin and cremophore EL.
N-terminal His6 tagged SHIP enzyme was expressed in mammalian 293T cells by transient transfection with pME18S-His-SHIP plasmid and purified to >95% homogeneity by Ni-chelating bead chromatography (Qiagen, Mississauga, Ontario). Recombinant SHIP C2 domain (amino acid residues 725 to 863) was expressed in E. coli transformed with a pET28C expression vector constructed as described below. Recombinant protein purified from the cell lysates by Nichelating bead chromatography was >95% pure.
In vitro SHIP enzyme assay. SHIP enzyme assays were performed in 96-well microtitre plates with 10 ng of enzyme/well in a total volume of 25 μL of 20 mM Tris HCl, pH 7.5 and 10 Mm MgCl2. SHIP enzyme was incubated with test extracts (provided in DMSO) or vehicle for 15 min at 23° C. before the addition of 100 μM inositol-1,3,4,5-tetrakisphosphate (Echelon Biosciences Inc, Salt Lake City, Utah). After 20 min at 37° C. and the amount of inorganic phosphate released assessed by the addition of Malachite Green reagent and absorbance measurement at 650 nm. SHIP2 enzyme was purchased from Echelon Biosciences (Salt Lake City, Utah) and an equivalent amount of inositol phosphatase activity was used in the in vitro enzyme assay. Enzyme data are expressed as the mean of triplicates +/−SEM. Experiments were performed at least 3 times. (FIGS. 7A and 7B).

ΔC2 SHIP = experiment: SHIP enzyme assay with C2 domain deleted SHIP; type: biochemical; conditions: PI-3,4-P2 20 μM or Compound 100 3 μM, 30 μM IP4
From the text: A His6 tagged SHIP ΔC2 domain deletion mutant (deleting residues 725 to 863) in the mammalian expression vector pME18S was generated by a standard PCR-based methodology. An N-terminal His6 C2 domain construct was also generated by PCR inserted into the pET28C bacterial expression vector using EcoRI and NdeI restriction sites.
The allosteric regulation of enzymes has remained under-appreciated primarily because allosteric effectors are not easy to find. The molecular mechanism by which Compound 100 activated SHIP was investigated, first by performing classical enzyme kinetic analysis of its phosphatase activity. Activity measurements were performed with substrate concentrations from 10-100 μM.
The SHIP protein contains a C2 domain located at the carboxyterminal end of its phosphatase domain. […] SHIP lacking its the C2 domain (ΔC2 SHIP) was prepared.

Structure (SMILES): Cc1cc(OC(=O)CN)cc2c1[C@]1(C)CCC3C(C)(C)CCC[C@]3(C)[C@H]1C2 (some centres unmarked) [Compound 103]
Assay Number 2: Macrophage TNF-α production (J774.1a macrophage cells [1]): +
Assay Number 3: Macrophage NO (J774.1a macrophage cells [2]): +
inhibition of TNFα production (J774.1 macrophage cells): Inhibits TNF Alpha Production Better than Compound 100

Structure (SMILES): Cc1cc(OC(=O)C(N)CCCCN)cc2c1[C@]1(C)CCC3C(C)(C)CCC[C@]3(C)[C@H]1C2 (some centres unmarked) [Compound 106]
Assay Number 2: Macrophage TNF-α production (J774.1a macrophage cells [1]): +
Assay Number 3: Macrophage NO (J774.1a macrophage cells [2]): +
Assay Number 4: Stimulation of mast cells by FcεRI crosslinking (Mast cells): +
inhibition of calcium influx [3]: Inhibits Calcium Influx in Mast Cells

Structure (SMILES): O=c1cc(N2CCOCC2)oc2c(-c3ccccc3)cccc12 [LY294002, reference compound]
suppression of TNFα production [4]: up to −40%
suppression of TNFα production [5]: up to −40%

ΔC2 SHIP enzyme activity (ΔC2 SHIP): could not be enhanced
Structure (SMILES): CCCCCCCCCCCCCCCC(=O)OC[C@H](COP(=O)(O)O[C@H]1[C@H](O)[C@@H](O)[C@H](OP(=O)(O)O)[C@@H](OP(=O)(O)O)[C@H]1O)OC(=O)CCCCCCCCCCCCCCC [PI-3,4-P2, phosphatidylinositol-3,4-bisphosphate diC16, reference compound]
SHIP enzyme activity (SHIP enzyme): activated wild-type SHIP enzyme to a similar extent as Compound 100
